Data taken from ChEMBL document CHEMBL2074500 (Drug Metab Dispos, 1999).
One block for each molecule: values may come before it.

Columns and labels:
[1] = target: T1, Solute carrier organic anion transporter family member 1A2 (Homo sapiens, UniProt P46721); test: TP_TRANSPORTER: inhibition of Fexofenadine uptake (Fexofenadine: 2 uM, Quinidine: 100 uM) in Xenopus laevis oocytes; assay type: functional, cell-based, Oocyte; conditions: probe Fexofenadine, read-out: Activity
T1 sequence (P46721 whole entry): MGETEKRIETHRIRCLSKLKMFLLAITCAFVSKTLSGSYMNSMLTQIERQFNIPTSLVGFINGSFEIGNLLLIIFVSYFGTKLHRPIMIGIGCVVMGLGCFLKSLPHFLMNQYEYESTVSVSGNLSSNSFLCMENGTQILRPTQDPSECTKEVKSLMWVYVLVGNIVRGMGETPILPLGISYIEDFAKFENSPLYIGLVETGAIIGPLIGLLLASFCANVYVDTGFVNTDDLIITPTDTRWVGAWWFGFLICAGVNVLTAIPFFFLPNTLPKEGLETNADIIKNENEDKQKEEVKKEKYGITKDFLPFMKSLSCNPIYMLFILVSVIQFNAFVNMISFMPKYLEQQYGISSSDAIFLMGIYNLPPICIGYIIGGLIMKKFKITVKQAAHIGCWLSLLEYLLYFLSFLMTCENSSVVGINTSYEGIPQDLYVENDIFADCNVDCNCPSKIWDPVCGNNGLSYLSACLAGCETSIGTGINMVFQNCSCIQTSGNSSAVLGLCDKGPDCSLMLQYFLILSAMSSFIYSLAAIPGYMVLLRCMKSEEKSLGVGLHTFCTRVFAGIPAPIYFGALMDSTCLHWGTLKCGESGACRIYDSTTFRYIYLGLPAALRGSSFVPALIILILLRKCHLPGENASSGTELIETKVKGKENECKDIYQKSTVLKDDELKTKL

[2] = target: T1, Solute carrier organic anion transporter family member 1A2; test: TP_TRANSPORTER: inhibition of Fexofenadine uptake (Fexofenadine: 2 uM, Erythromycin: 100 uM) in Xenopus laevis oocytes; assay type: functional, cell-based; set-up: scale not given: the % may be the effect or the level left; conditions: oocyte
[3] = target: T1, Solute carrier organic anion transporter family member 1A2; test: TP_TRANSPORTER: inhibition of Fexofenadine uptake (Fexofenadine: 2 uM, Nelfinavir: 100 uM) in Xenopus laevis oocytes; assay type: functional, cell-based; set-up: scale not given: the % may be the effect or the level left; conditions: oocyte
[4] = target: T1, Solute carrier organic anion transporter family member 1A2; test: TP_TRANSPORTER: inhibition of Fexofenadine uptake (Fexofenadine: 2 uM, Lovastatin: 100 uM) in Xenopus laevis oocytes; assay type: functional, cell-based, Oocyte; conditions: probe Fexofenadine
[5] = target: T1, Solute carrier organic anion transporter family member 1A2; test: TP_TRANSPORTER: inhibition of Fexofenadine uptake (Fexofenadine: 2 uM, Ketoconazole: 100 uM) in Xenopus laevis oocytes; assay type: functional, cell-based; set-up: scale not given: the % may be the effect or the level left; conditions: oocyte
[6] = target: T1, Solute carrier organic anion transporter family member 1A2; test: TP_TRANSPORTER: inhibition of Fexofenadine uptake (Fexofenadine: 2 uM, Indinavir: 100 uM) in Xenopus laevis oocytes; assay type: functional, cell-based; set-up: scale not given: the % may be the effect or the level left; conditions: oocyte
[7] = target: T1, Solute carrier organic anion transporter family member 1A2; test: TP_TRANSPORTER: inhibition of Fexofenadine uptake (Fexofenadine: 2 uM, Saquinavir: 100 uM) in Xenopus laevis oocytes; assay type: functional, cell-based; set-up: scale not given: the % may be the effect or the level left; conditions: oocyte
[8] = target: T1, Solute carrier organic anion transporter family member 1A2; test: TP_TRANSPORTER: inhibition of Fexofenadine uptake (Fexofenadine: 2 uM, PSC-833: 100 uM) in Xenopus laevis oocytes; assay type: functional, cell-based, Oocyte; conditions: probe Fexofenadine
[9] = target: T1, Solute carrier organic anion transporter family member 1A2; test: TP_TRANSPORTER: inhibition of Fexofenadine uptake (Fexofenadine: 2 uM, Verapamil: 100 uM) in Xenopus laevis oocytes; assay type: functional, cell-based, Oocyte; conditions: probe Fexofenadine
[10] = target: T2, ATP-dependent translocase ABCB1 (Mus musculus, UniProt P21447); test: TP_TRANSPORTER: increase in plasma concentration in mdr1a(-/-) mouse; assay type: functional, organism-based; conditions: in vivo
T2 sequence (P21447 whole entry): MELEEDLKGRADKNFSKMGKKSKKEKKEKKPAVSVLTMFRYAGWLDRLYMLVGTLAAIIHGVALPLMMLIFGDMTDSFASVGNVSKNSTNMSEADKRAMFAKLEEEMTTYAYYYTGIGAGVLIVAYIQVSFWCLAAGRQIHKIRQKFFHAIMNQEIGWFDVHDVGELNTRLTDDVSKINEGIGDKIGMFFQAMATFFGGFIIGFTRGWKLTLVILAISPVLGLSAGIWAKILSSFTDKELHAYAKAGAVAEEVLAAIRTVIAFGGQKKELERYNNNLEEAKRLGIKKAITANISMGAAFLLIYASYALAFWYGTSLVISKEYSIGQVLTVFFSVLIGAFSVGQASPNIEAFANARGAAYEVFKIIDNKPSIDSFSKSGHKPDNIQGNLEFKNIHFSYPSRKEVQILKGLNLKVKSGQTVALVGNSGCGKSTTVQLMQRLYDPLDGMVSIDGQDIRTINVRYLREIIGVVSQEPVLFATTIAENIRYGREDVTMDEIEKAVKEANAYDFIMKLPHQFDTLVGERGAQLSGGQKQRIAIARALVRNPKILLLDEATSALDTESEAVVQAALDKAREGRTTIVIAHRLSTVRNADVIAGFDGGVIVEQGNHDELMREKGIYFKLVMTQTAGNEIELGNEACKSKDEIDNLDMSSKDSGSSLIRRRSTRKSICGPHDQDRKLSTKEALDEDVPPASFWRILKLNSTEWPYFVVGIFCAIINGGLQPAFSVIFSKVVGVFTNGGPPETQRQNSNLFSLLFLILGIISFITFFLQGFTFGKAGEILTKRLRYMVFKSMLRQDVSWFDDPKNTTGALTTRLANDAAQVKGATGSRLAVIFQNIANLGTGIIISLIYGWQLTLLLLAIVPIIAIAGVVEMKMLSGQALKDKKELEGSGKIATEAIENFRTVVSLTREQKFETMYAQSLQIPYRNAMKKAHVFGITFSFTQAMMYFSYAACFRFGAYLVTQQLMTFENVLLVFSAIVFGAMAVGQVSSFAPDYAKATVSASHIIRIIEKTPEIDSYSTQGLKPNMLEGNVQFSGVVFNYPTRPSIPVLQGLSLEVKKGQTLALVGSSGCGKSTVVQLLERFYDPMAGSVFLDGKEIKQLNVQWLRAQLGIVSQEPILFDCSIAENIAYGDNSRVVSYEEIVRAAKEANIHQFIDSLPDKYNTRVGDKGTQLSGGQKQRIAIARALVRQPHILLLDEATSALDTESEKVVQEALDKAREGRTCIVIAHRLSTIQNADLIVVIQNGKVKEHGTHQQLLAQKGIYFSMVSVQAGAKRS

[11] = target: T2, ATP-dependent translocase ABCB1; test: TP_TRANSPORTER: increase in spleen concentration in mdr1a(-/-) mouse; assay type: functional, organism-based; conditions: in vivo
[12] = target: T2, ATP-dependent translocase ABCB1; test: TP_TRANSPORTER: increase in liver concentration in mdr1a(-/-) mouse; assay type: functional, organism-based; conditions: in vivo
[13] = target: T2, ATP-dependent translocase ABCB1; test: TP_TRANSPORTER: increase in small intestine concentration in mdr1a(-/-) mouse; assay type: functional, organism-based; conditions: in vivo
[14] = target: T2, ATP-dependent translocase ABCB1; test: TP_TRANSPORTER: increase in heart concentration in mdr1a(-/-) mouse; assay type: functional, organism-based; conditions: in vivo
[15] = target: T2, ATP-dependent translocase ABCB1; test: TP_TRANSPORTER: increase in kidney concentration in mdr1a(-/-) mouse; assay type: functional, organism-based; conditions: in vivo
[16] = substrate: CC(C)(C(=O)O)c1ccc(C(O)CCCN2CCC(C(O)(c3ccccc3)c3ccccc3)CC2)cc1; test: TP_TRANSPORTER: uptake in Oatp2-expressing HeLa cells; assay type: functional, cell-based

inhibition at 100 µM [1]: 91%
Molecule: C=C[C@H]1C[N@@]2CC[C@H]1C[C@@H]2[C@@H](O)c1ccnc2ccc(OC)cc12 [QUINIDINE]

Activity [2]: 66%
Molecule: CC[C@H]1OC(=O)[C@H](C)[C@@H](O[C@H]2C[C@@](C)(OC)[C@@H](O)[C@H](C)O2)[C@H](C)[C@@H](O[C@@H]2O[C@H](C)C[C@H](N(C)C)[C@H]2O)[C@](C)(O)C[C@@H](C)C(=O)[C@H](C)[C@@H](O)[C@]1(C)O [ERYTHROMYCIN]

Activity [3]: 81%
Molecule: Cc1c(O)cccc1C(=O)N[C@@H](CSc1ccccc1)[C@H](O)CN1C[C@H]2CCCC[C@H]2C[C@H]1C(=O)NC(C)(C)C

inhibition at 100 µM [4]: 95%
Molecule: CC[C@H](C)C(=O)O[C@H]1C[C@@H](C)C=C2C=C[C@H](C)[C@H](CC[C@@H]3C[C@@H](O)CC(=O)O3)[C@H]21 [LOVASTATIN]

Molecule: CC(=O)N1CCN(c2ccc(OCC3COC(Cn4ccnc4)(c4ccc(Cl)cc4Cl)O3)cc2)CC1 (stereo unspecified) [KETOCONAZOLE]
Activity [5]: 107%

Activity [6]: 70%
Molecule: CC(C)(C)NC(=O)[C@@H]1CN(Cc2cccnc2)CCN1C[C@@H](O)C[C@@H](Cc1ccccc1)C(=O)N[C@H]1c2ccccc2C[C@H]1O.O

Activity [7]: 105%
Molecule: CC(C)(C)NC(=O)[C@@H]1C[C@@H]2CCCC[C@@H]2CN1C[C@@H](O)[C@H](Cc1ccccc1)NC(=O)[C@H](CC(N)=O)NC(=O)c1ccc2ccccc2n1

inhibition at 100 µM [8]: 85%
Molecule: C/C=C/C[C@@H](C)C(=O)[C@H]1C(=O)N[C@@H](C(C)C)C(=O)N(C)CC(=O)N(C)[C@@H](CC(C)C)C(=O)N[C@@H](C(C)C)C(=O)N(C)[C@@H](CC(C)C)C(=O)N[C@@H](C)C(=O)N[C@H](C)C(=O)N(C)[C@@H](CC(C)C)C(=O)N(C)[C@@H](CC(C)C)C(=O)N(C)[C@@H](C(C)C)C(=O)N1C [VALSPODAR]

inhibition at 100 µM [9]: 100%
Molecule: COc1ccc(CCN(C)CCCC(C#N)(c2ccc(OC)c(OC)c2)C(C)C)cc1OC (stereo unspecified)

Activity [10]: substrate [+]
Activity [11]: substrate [+]
Activity [12]: substrate [+]
Activity [13]: substrate [+]
Activity [14]: substrate [+]
Activity [15]: substrate [+]
Molecule: CC(C)(C(=O)O)c1ccc(C(O)CCCN2CCC(C(O)(c3ccccc3)c3ccccc3)CC2)cc1 (stereo unspecified) [FEXOFENADINE]

B1: Solute carrier organic anion transporter family member 1A4 (Rattus norvegicus) (protein)
chain: MGKSEKRVATHGVRCFAKIKMFLLALTCAYVSKSLSGTYMNSMLTQIERQFGIPTSIVGLINGSFEIGNLLLIIFVSYFGTKLHRPIMIGVGCAVMGLGCFLISLPHFLMGQYEYETILPTSNVSSNSFFCVENRSQTLNPTQDPSECVKEMKSLMWIYVLVGNIIRGIGETPIMPLGISYIEDFAKSENSPLYIGILETGMTIGPLIGLLLASSCANIYVDIESVNTDDLTITPTDTRWVGAWWIGFLVCAGVNILTSFPFFFFPKTLPKEGLQENVDGTENAKEKKHRKKAKEEKRGITKDFFVFMKSLSCNPIYMLFILISVLQFNAFINSFTFMPKYLEQQYGKSTAEVVFLMGLYMLPPICLGYLIGGLIMKKFKVTVKKAAHLAFWLCLSEYLLSFLSYVMTCDNFPVAGLTTSYEGVQHQLYVENKVLADCNTRCNCSTNTWDPVCGDNGLAYMSACLAGCEKSVGTGTNMVFQNCSCIQSSGNSSAVLGLCNKGPDCANKLQYFLIIAIFGCFIYSLAGIPGYMVLLRCIKSEEKSLGVGLHAFCIRILAGIPAPIYFGALIDRTCLHWGTLKCGEPGACRMYDINSFRRLYLGLPAALRGASFVPAFFILRLTRTFQFPGDIESSKTDHAEMKLTLKESECTEVLRSKVTED
Km [16]: 6 µM
